Assay results published in PubChem BioAssay AID2740 (NMMLSC, 2010).
Active and inactive are the calls of the source.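 The calls were made as follows: active = compounds whose fitted half-maximal concentration for changing the GFP signal is at or below a set limit; inactive = the rest.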

Experiment: TOR pathway RPL19A-GFP modulators, concentration series – cell-based, S. cerevisiae, flow cytometry, MLPCN hits, dose response (AID 2740);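 also: background is signal of the same compound in parental non-GFP s288c yeast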
Conditions: S. cerevisiae RPL19A-GFP strain, flow cytometry fluorescence, 3 h; at 33 µM (top of the series)

Structure (SMILES) | GFP fluorescence, lower = active (kMESF (background-subtracted))
Cc1cc(C)nc(S/C=C/C(=O)c2ccccc2)n1 | 47.4 (inactive)
O=C1C=C(Nc2ccc(Cl)cc2)C(=O)N1c1ccc(Cl)cc1 | 39.1 (inactive)
COc1cc(/C=C2\CC/C(=C\c3cc(OC)c(O)c(OC)c3)C2=O)cc(OC)c1O | 39.6 (inactive)
COc1cc(NC(=O)c2ccc(C)cc2)ccc1NC(=O)c1cc2ccccc2o1 | 40.8 (inactive)
CCN1/C(=C/C=C/c2sc3ccccc3[n+]2CC)Sc2ccccc21 | 31.9 (inactive)
CC(=O)N(C1=C(Cl)C(=O)c2ccccc2C1=O)C1CCCCC1 | -1.82 (inactive)
Cc1cc(C)c(S(=O)(=O)ON2C(=O)c3ccccc3C2=O)cc1C | 25.8 (inactive)
CC(C)CC(=O)NC(=S)Nc1nc(-c2ccccc2)cs1 | 38.4 (inactive)
Nc1ccccc1C#CC(=O)c1ccccc1 | 21 (inactive)
Cc1cc(C)c(OCC(=O)Nc2nc(-c3ccccn3)cs2)c(C)c1 | 39.3 (inactive)
CCN(CC)C(=S)SSC(=S)N(CC)CC | 34.1 (inactive)
Cc1cc(O)c(C(=O)/C=C/c2ccc(Cl)cc2)c(=O)o1 | 33 (inactive)
O=c1[nH]c(-c2ccccn2)nc(C(F)(F)F)c1Br | 30.1 (inactive)
N#Cc1cc([N+](=O)[O-])c(-n2nnc3ccccc32)c([N+](=O)[O-])c1 | 43.3 (inactive)
COc1cc(/C=C2\C(=O)ON=C2c2ccccc2)cc(OC)c1OC | 33.4 (inactive)
N/C(=N\OC(=O)c1ccc(Cl)cc1Cl)c1ccccc1 | 39.4 (inactive)
O=C(O)c1ccccc1SC1CC(=O)N(c2ccc3c(c2)OCO3)C1=O (configuration not stated) | 43.5 (inactive)
O=[N+]([O-])c1cc(F)c2cccnc2c1O | 25.6 (inactive)
Cc1[nH]n(-c2ncc(-c3ccccc3)s2)c(=O)c1C(c1ccc(Cl)cc1)C(C#N)C#N (configuration not stated) | 42 (inactive)
O=C(C#Cc1cccc([N+](=O)[O-])c1)c1ccccc1 | 41.3 (inactive)
O=C1c2cccc3c([N+](=O)[O-])ccc(c23)C(=O)N1O | 49.9 (inactive)

Structure (SMILES) | GFP fluorescence, lower = active (kMESF (background-subtracted))
CC[C@]1(c2ccccc2C)ON(c2ccccc2C(F)(F)F)C1=O | 40 (inactive)
COc1ccccc1C(=O)NNC(=S)NC(=O)c1ccco1 | 35.5 (inactive)
Cc1ccc(N2C(=O)C(Cl)=C(Nc3c(C)n(C)n(-c4ccccc4)c3=O)C2=O)cc1 | 39 (inactive)
COc1ccc(N2CCN(C(=O)c3ccc(Br)cc3)CC2)c([N+](=O)[O-])c1 | 47.4 (inactive)
COc1ccccc1N=Nc1ccc(O)c2ncccc12 | 32.6 (inactive)
COc1ccc(N2C(=O)C(Cl)=C(Nc3c(C)n(C)n(-c4ccccc4)c3=O)C2=O)cc1 | 39.8 (inactive)
CC1=NOC(=O)/C1=C\c1ccc(-c2cc(Cl)ccc2Cl)o1 | 39 (inactive)
COc1cccc(N=Nc2ccc(O)c3ncccc23)c1 | 50.7 (inactive)
CCCCC(=O)NNC(=S)NC(=O)c1ccc(C)cc1 | 42.3 (inactive)
Cc1ccc(C(=O)Oc2oc(-c3ccco3)nc2C=Nc2ccc(Cl)cc2)cc1 | 40.8 (inactive)
COc1ccc(/C=C/C(=O)NC(=S)NNC(=O)c2cnccn2)cc1 | 49.2 (inactive)
O=c1oc(/C=C/c2ccc([N+](=O)[O-])s2)nc2ccccc12 | 55 (inactive)
CCCCNc1c2c3c(cccc3n(C)c1=O)C(=O)c1ccccc1-2 | 39.9 (inactive)
N/C(=N\OC(=O)c1cc(Br)ccc1Cl)c1ccccn1 | 39.8 (inactive)
O=C(Nc1nnc(-c2ccc(Cl)cc2)o1)c1ccccc1Br | 37 (inactive)
COc1ccccc1NC1=C(Cl)C(=O)N(c2ccccc2)C1=O | 39.5 (inactive)
O=C(Nc1nnc(-c2ccc(F)cc2)o1)c1cccc([N+](=O)[O-])c1 | 43.5 (inactive)
C/C(=N\NC(=O)c1cc2ccccc2cc1O)c1ccccn1 | 45.5 (inactive)
Cc1ccc(N2C(=O)CC(Sc3ncn[nH]3)C2=O)cc1C (configuration not stated) | 49.3 (inactive)
CC[C@H](C)/C=C(C)/C=C/C1=CC2=C(Cl)C(=O)[C@@](C)(OC(C)=O)C(=O)C2=CO1 | 4.51 (inactive)
O=C(Cc1ccc(Cl)cc1)NNC(=S)NC(=O)c1cccs1 | 45.9 (inactive)
